The text below walks through data of patent publication EP0184471A1, “Product containing an antiprogestomimetic and a uterotonic substance” (ROUSSEL-UCLAF, priority 1984, dated 1986).

Marks after values point to notes of the source that are not given here.

This experiment has as its system grossesse apparemment normale et une aménorhée de 49 jours au plus. Kind of experiment: Clinical study of termination of early pregnancy: oral RU 486 alone or with an intramuscular sulprostone injection. Type of experiment: in vivo, jeunes femmes. Here is the method:
L'étude a porté sur 33 jeunes femmes en bonne santé présentant une grossesse apparemment normale et une aménorhée de 49 jours au plus.
Le composé RU 486 a été administré oralement à différentes doses : • 1) 25 mg 2 fois par jour pendant 4 jours. • 2) 25 mg 4 fois par jour pendant 4 jours.
Chez 16 patientes une injection intramusculaire de 0,25 mg de la méthylsulfonylamide de la 16-phénoxytétranor PG E2 (sulprostone) a été administrée le matin du dernier jour de traitement par le RU 486. Les sujets ont jeuné au moins une heure avant jusqu'à une heure après la prise du produit.
Les résultats obtenus sont rapportés dans le tableau I ci-après.

The mark [1] stands for this setting: number of patients, RU 486 25 mg orally 2 times per day for 4 days (25 x 2), n=11 group A, n=9 group B.
The mark [2] stands for this setting: number of patients, RU 486 25 mg orally 4 times per day for 4 days (25 x 4), n=6 group A, n=7 group B.
Setting [3] is: number of patients, Total of both RU 486 doses, n=17 group A, n=16 group B.
Where [4] appears, read: percent of patients, Total of both RU 486 doses, n=17 group A.

In the case of `CC#C[C@]1(O)CC[C@H]2[C@@H]3CCC4=CC(=O)CCC4=C3[C@@H](c3ccc(N(C)C)cc3)C[C@@]21C` [RU 486, 11β-(4-diméthylaminophényl) 170 - hydroxy 17α-(prop-l-ynyl) estra 4,9 - dièn 3 - one], the Avortements complets reads like this: under setting [1], 8; under setting [2], 5; under setting [3], 13; (percent of patients, Total of both RU 486 doses, n=17 group A, n=16 group B) 76,5%. The Avortements incomplets was 1 under setting [1], 0 under setting [2], 1 under setting [3] and 5,9% under setting [4]. For the same compound, the “Poursuite de la grossesse” value runs as follows: (number of patients, RU 486 25 mg orally 2 times per day for 4 days (25 x 2), n=11 group A, n=9 group B, group A value includes one extra-uterine pregnancy) 2*; under setting [2], 1; under setting [3], 3; under setting [4], 17,6%.
